Test results: publication PMC3814719, “Structure of a bacterial putative acetyltransferase defines the fold of the human O-GlcNAcase C-terminal domain” (Open Biology, 2013)

Biological target: T1, OgpAT (Oceanicola granulosus, UniProt Q2CEE2)
T1 construct: gene OG2516_04134; full-length OgpAT, expressed as GST fusion from pGEX-6P-1 in E. coli BL21(DE3) pLysS, GST cut off with PreScission protease; 206 residues in crystal; monomer; biotinylated for SPR; gene immediately downstream of OgOGA
Assay: surface plasmon resonance, biotinylated protein on streptavidin chip, […] equilibrium fit
Type: binding
Conditions: read-out: OgpAT, wt

T1 sequence (Q2CEE2 whole entry, the tested form may be a part): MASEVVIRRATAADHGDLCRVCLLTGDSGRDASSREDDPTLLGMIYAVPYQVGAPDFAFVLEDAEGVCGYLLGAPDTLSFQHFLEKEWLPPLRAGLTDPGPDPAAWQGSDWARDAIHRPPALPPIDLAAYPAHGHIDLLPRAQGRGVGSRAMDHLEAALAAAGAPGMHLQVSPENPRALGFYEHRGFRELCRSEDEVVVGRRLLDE

CC(=O)SCCNC(=O)CCNC(=O)[C@H](O)C(C)(C)COP(=O)(O)OP(=O)(O)OC[C@H]1O[C@@H](n2cnc3c(N)ncnc32)[C@H](O)[C@@H]1OP(=O)(O)O [AcCoA]
Kd: 8.3 µM
